Source: PubChem BioAssay (NCI)
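The concentration for 50% growth inhibition is given as GI50. At the TGI there is no net growth.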

Columns and labels:
Test in all cases: DTP human tumour cell line panel, 384-well format
SNB-19 CNS = tested on: SNB-19 CNS
OVCAR-4 ovarian = tested on: OVCAR-4 ovarian
UACC-257 melanoma = tested on: UACC-257 melanoma
OVCAR-8 ovarian = tested on: OVCAR-8 ovarian
BT-549 breast = tested on: BT-549 breast
SW-620 colon = tested on: SW-620 colon
SK-MEL-5 melanoma = tested on: SK-MEL-5 melanoma
UO-31 renal = tested on: UO-31 renal
OVCAR-5 ovarian = tested on: OVCAR-5 ovarian
SNB-75 CNS = tested on: SNB-75 CNS
HCT-116 colon = tested on: HCT-116 colon
MCF7 breast = tested on: MCF7 breast
IGROV1 ovarian = tested on: IGROV1 ovarian

## C[C@]12CCCN1CC1=NNC(=O)c3cc(F)cc4[nH]c2c1c34
SNB-19 CNS
  GI50: 35.2 µM
  TGI: 97.7 µM
OVCAR-4 ovarian
  GI50: 26.5 µM
  TGI: 79.4 µM
UACC-257 melanoma
  GI50: 37.2 µM
  TGI: > 92.2 µM
OVCAR-8 ovarian
  GI50: 13 µM
  TGI: 35.7 µM
BT-549 breast
  GI50: 16.4 µM
  TGI: 42.2 µM
SW-620 colon
  GI50: 7.57 µM
  TGI: > 39.2 µM
SK-MEL-5 melanoma
  GI50: 19.6 µM
  TGI: 36.7 µM
UO-31 renal
  GI50: 27.5 µM
  TGI: 96.1 µM
OVCAR-5 ovarian
  GI50: 17.9 µM
  TGI: 44.5 µM
SNB-75 CNS
  GI50: 23.3 µM
  TGI: > 67.2 µM
HCT-116 colon
  GI50: 9 µM
  TGI: 43.3 µM
MCF7 breast
  GI50: 19.4 µM
  TGI: 71.1 µM
IGROV1 ovarian
  GI50: 21.7 µM
  TGI: > 89.6 µM
